Consider two compounds from PMC2365101, “Anti-Inflammatory Activity of (Polyphenolic)-Sulfonates and Their Sodium Salts in Rodents” (Metal-Based Drugs, 1998).

The target in the assay is T1, TNFα high affinity receptors on L929 fibroblasts (Mus musculus, UniProt P25118).
T1 construct: host or cells: L929 mouse fibroblasts
T1 sequence (P25118 30-454): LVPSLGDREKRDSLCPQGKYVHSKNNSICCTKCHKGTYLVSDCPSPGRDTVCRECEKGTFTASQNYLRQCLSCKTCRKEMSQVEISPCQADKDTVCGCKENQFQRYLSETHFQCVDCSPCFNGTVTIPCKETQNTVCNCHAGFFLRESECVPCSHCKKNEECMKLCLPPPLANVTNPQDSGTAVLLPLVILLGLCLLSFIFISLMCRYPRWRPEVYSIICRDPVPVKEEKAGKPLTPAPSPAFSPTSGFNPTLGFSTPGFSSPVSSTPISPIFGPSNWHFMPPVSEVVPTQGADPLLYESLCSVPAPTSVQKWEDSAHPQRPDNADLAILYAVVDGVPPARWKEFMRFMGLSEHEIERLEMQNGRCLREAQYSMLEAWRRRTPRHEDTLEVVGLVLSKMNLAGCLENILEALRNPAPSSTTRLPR
The assay is described as follows: 125I-TNFα binding to high affinity receptors on L929 fibroblasts. Conditions: 90 min, N=6. The text has this: Few reports in the literature indicate interaction at these receptor sites other than by peptides or antibodies. […] Blocking these receptors is desirable because the entire inflammation cascade of events is triggered by the early release of TNFa and IL-1. […] Radioisotopes were obtained from New England Nuclear [Dupont, Boston, MA] and substrates and co- factors were obtained from Sigma Chemical Co. [St. Louis, MO]. […] Cell lines were obtained from American Type Culture Collection [Rockville, MD]. In Vivo Tests Anti-inflammatory screen in mice: Male CF male mice weighing 28-32g obtained from Jackson Lab. [Bar Harbor, […]] were used to screen agents at 8 or 16 mg/kg intraperitoneal [I.P.] x 2 administered 3 hr and 30 min prior to administering the irritant, according to Winter's protocol. Evaluation of the induced edema was made by injecting 2% carrageenan in 0.9% saline into the plantar region of the foot. The opposite foot injected with 0.9% isotonic saline was used as a base line. […] Salmonella abortus equi [Lot # 69F4003] […] Drugs from 2 to 16 mg/kg, I.P. were administered 2 hr prior and 2 hr post-injection of the LPS and then subsequently for every 24 hr for the length ofthe animals' lives. Deaths were recorded every 12 hr and continued for 96 hr. […] In vitro TNFa andIL-1 Measurements and Cellular Regulation IC-21 mouse macrophages were maintained in RPMI-1640 + 10% FCS + P/S. After the cells had grown to confluency, E. coli LPS at 10 Ixg/ml was added to the medium. Agents were incubated at 12.5 to 100 µM final concentration for 18 hr. The medium (100 btl) was collected for TNFCt determinations. Interleukin-1 [IL-1] release was determined using P388D1 cells which were maintained in RPMI-1640 + 10% FCS + P/S. The L929 bioassay was used to quantitate the TNF and the IL-1 levels. The L929 mouse fibroblasts were grown in DMEM + 10% FCS + P/S to confluency in 96 well plates and incubated with 100 tl ofmedium from […] or P388D cells after 18 hr. The cells were stained with 0.2% crystal violet in 20% MeOH and read at 580 nm using a Molecular Devices scanner (SOFT-max program). High Affinity Binding to Receptors on L929-106 Cells Two laCi of 125I-TNFct (human recombinant, 30 mCi/tg New England Nuclear) or 125I-IL-1 (70-120[.t Ci/lxg,New England Nuclear) was added to confluency L929 cells for 90 min or 5 hr, […] The cells were washed repeatedly with isotonic saline, pH.7.2 and aliquots counted. Prostaglandin cylcooxygenase activity Mouse J774AI macrophages maintained in Dulbecco's modified Eagle's medium + 15% FCS + P/S. Cells (5 x 106) were incubated with agents (5 to 100 ].tM final concentration) and 3H-arachidonic acid (100 Ci/mol) for 60 min at 37C in a CO2 incubator. The reaction was terminated with 2N HCI, the mixture extracted 2 X with ether, and the organic layer evaporated.

In the case of `CC(=O)Oc1c2cc(S(=O)(=O)[O-])cc1Cc1cc(S(=O)(=O)[O-])cc(c1OC(C)=O)Cc1cc(S(=O)(=O)[O-])cc(c1OC(C)=O)Cc1cc(S(=O)(=O)[O-])cc(c1OC(C)=O)Cc1cc(S(=O)(=O)[O-])cc(c1OC(C)=O)Cc1cc(S(=O)(=O)[O-])cc(c1OC(C)=O)Cc1cc(S(=O)(=O)[O-])cc(c1OC(C)=O)Cc1cc(S(=O)(=O)[O-])cc(c1OC(C)=O)C2.[Na+].[Na+].[Na+].[Na+].[Na+].[Na+].[Na+].[Na+]` [Compound 8], the “TNFα binding, Percent of Control” value is reported as 59 + 6% of Control (5 μM), 23 + 4% of Control (25 μM) and 37 + 4% of Control (50 μM).
`COc1c2cc(S(=O)(=O)[O-])cc1Cc1cc(S(=O)(=O)[O-])cc(c1OC)Cc1cc(S(=O)(=O)[O-])cc(c1OC)Cc1cc(S(=O)(=O)[O-])cc(c1OC)Cc1cc(S(=O)(=O)[O-])cc(c1OC)Cc1cc(S(=O)(=O)[O-])cc(c1OC)C2.[Na+].[Na+].[Na+].[Na+].[Na+].[Na+]` [Compound 6]: the “TNFα binding, Percent of Control” value (5 μM) is listed as 61 + 5% of Control; the “TNFα binding, Percent of Control” value (12.5 μM) is 39 + 4% of Control; the “TNFα binding, Percent of Control” value (25 μM) is reported as 24 + 3% of Control; the “TNFα binding, Percent of Control” value (50 μM) is reported as 36 + 5% of Control.
